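Five compound concentrations were applied to cells in 96-well plates for 48 hours; endpoints were derived by simple linear interpolation of the resulting dose-response curve. TGI is the concentration that stops growth completely.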
Experiments:
Test in all cases: NCI-60 cell line screen, 48 h
BT-549 breast = tested on: BT-549 breast
M14 melanoma = tested on: M14 melanoma
ACHN renal = tested on: ACHN renal
NCI/ADR-RES ovarian = tested on: NCI/ADR-RES ovarian
SNB-75 CNS = tested on: SNB-75 CNS
NCI-H460 lung = tested on: NCI-H460 lung
NCI-H522 lung = tested on: NCI-H522 lung
IGROV1 ovarian = tested on: IGROV1 ovarian
A498 renal = tested on: A498 renal
MCF7 breast = tested on: MCF7 breast
MDA-MB-435 = tested on: MDA-MB-435
CCRF-CEM leukemia = tested on: CCRF-CEM leukemia
CAKI-1 renal = tested on: CAKI-1 renal
T-47D breast = tested on: T-47D breast
NCI-H23 lung = tested on: NCI-H23 lung
OVCAR-3 ovarian = tested on: OVCAR-3 ovarian
COLO 205 colon = tested on: COLO 205 colon
DU-145 prostate = tested on: DU-145 prostate
HL-60(TB) leukemia = tested on: HL-60(TB) leukemia
SF-539 CNS = tested on: SF-539 CNS
MOLT-4 leukemia = tested on: MOLT-4 leukemia
SW-620 colon = tested on: SW-620 colon
KM12 colon = tested on: KM12 colon
SR leukemia = tested on: SR leukemia
EKVX NSCLC = tested on: EKVX NSCLC
SK-MEL-2 melanoma = tested on: SK-MEL-2 melanoma
OVCAR-4 ovarian = tested on: OVCAR-4 ovarian
U251 CNS = tested on: U251 CNS
HT29 colon = tested on: HT29 colon
UO-31 renal = tested on: UO-31 renal
TK-10 renal = tested on: TK-10 renal
UACC-257 melanoma = tested on: UACC-257 melanoma
OVCAR-5 ovarian = tested on: OVCAR-5 ovarian
UACC-62 melanoma = tested on: UACC-62 melanoma
786-0 renal = tested on: 786-0 renal
SK-OV-3 ovarian = tested on: SK-OV-3 ovarian
SN12C renal = tested on: SN12C renal
HS 578T breast = tested on: HS 578T breast
HCT-15 colon = tested on: HCT-15 colon
HCC-2998 colon = tested on: HCC-2998 colon
SNB-19 CNS = tested on: SNB-19 CNS
PC-3 prostate = tested on: PC-3 prostate
K-562 leukemia = tested on: K-562 leukemia
HOP-62 NSCLC = tested on: HOP-62 NSCLC
OVCAR-8 ovarian = tested on: OVCAR-8 ovarian
RPMI-8226 leukemia = tested on: RPMI-8226 leukemia
LOX IMVI melanoma = tested on: LOX IMVI melanoma
MALME-3M melanoma = tested on: MALME-3M melanoma
SK-MEL-5 melanoma = tested on: SK-MEL-5 melanoma
A549 NSCLC = tested on: A549 NSCLC
SK-MEL-28 melanoma = tested on: SK-MEL-28 melanoma
MDA-MB-231 breast = tested on: MDA-MB-231 breast
HOP-92 NSCLC = tested on: HOP-92 NSCLC
SF-268 CNS = tested on: SF-268 CNS
HCT-116 colon = tested on: HCT-116 colon
SF-295 CNS = tested on: SF-295 CNS

With `CCC1OC2C(CC=C(C)C)=C3OC(C)(O)C(C)(CC)C(OC(C)=O)C3=C3OC(=O)C=C1C32` (stereo unspecified) the TGI (BT-549 breast) was 42.9 µM, the TGI (M14 melanoma) was > 100 µM and the TGI (ACHN renal) was > 100 µM. It also gave a TGI (NCI/ADR-RES ovarian) of 83.2 µM, a TGI (SNB-75 CNS) of 52.1 µM and a TGI (NCI-H460 lung) of 84.6 µM. The TGI (NCI-H522 lung) was 38.1 µM, the TGI (IGROV1 ovarian) was 69.6 µM and the TGI (A498 renal) was > 100 µM. For the same molecule, the TGI (MCF7 breast) was > 100 µM, the TGI (MDA-MB-435) was 50.3 µM and the TGI (CCRF-CEM leukemia) was > 100 µM. For the same molecule, the TGI (CAKI-1 renal) was 62.1 µM, the TGI (T-47D breast) was > 100 µM and the TGI (NCI-H23 lung) was 75.5 µM. The TGI (OVCAR-3 ovarian) was > 100 µM, the TGI (COLO 205 colon) was 70.9 µM and the TGI (DU-145 prostate) was > 100 µM. The TGI (HL-60(TB) leukemia) was > 100 µM, the TGI (SF-539 CNS) was 40.9 µM and the TGI (MOLT-4 leukemia) was 77.5 µM. For the same molecule, the TGI (SW-620 colon) was > 100 µM, the TGI (KM12 colon) was 50 µM and the TGI (SR leukemia) was > 100 µM. The TGI (EKVX NSCLC) was > 100 µM, the TGI (SK-MEL-2 melanoma) was 41.8 µM and the TGI (OVCAR-4 ovarian) was 70.5 µM. The TGI (U251 CNS) was > 100 µM, the TGI (HT29 colon) was 53.1 µM and the TGI (UO-31 renal) was 62.2 µM. The TGI (TK-10 renal) was > 100 µM, the TGI (UACC-257 melanoma) was 53.7 µM and the TGI (OVCAR-5 ovarian) was 57.9 µM. For the same molecule, the TGI (UACC-62 melanoma) was 42.1 µM, the TGI (786-0 renal) was > 100 µM and the TGI (SK-OV-3 ovarian) was > 100 µM. For the same molecule, the TGI (SN12C renal) was 41.2 µM, the TGI (HS 578T breast) was > 100 µM and the TGI (HCT-15 colon) was > 100 µM. The TGI (HCC-2998 colon) was 50.6 µM, the TGI (SNB-19 CNS) was 63.2 µM and the TGI (PC-3 prostate) was > 100 µM. The TGI (K-562 leukemia) was > 100 µM, the TGI (HOP-62 NSCLC) was 60.1 µM and the TGI (OVCAR-8 ovarian) was > 100 µM. For the same molecule, the TGI (RPMI-8226 leukemia) was > 100 µM, the TGI (LOX IMVI melanoma) was 48.8 µM and the TGI (MALME-3M melanoma) was 49.3 µM. For the same molecule, the TGI (SK-MEL-5 melanoma) was 42.2 µM, the TGI (A549 NSCLC) was > 100 µM and the TGI (SK-MEL-28 melanoma) was 59.1 µM. For the same molecule, the TGI (MDA-MB-231 breast) was 36.7 µM, the TGI (HOP-92 NSCLC) was > 100 µM and the TGI (SF-268 CNS) was > 100 µM. The TGI (HCT-116 colon) was 70 µM and the TGI (SF-295 CNS) was 42.2 µM.
